Columns and labels:
[1] = tested on: ob/ob mice; test: Intraperitoneal artemether, weight gain in diabetic ob/ob mice; type: in vivo, Male ob/ob mice; settings: intraperitoneal 20 mg/kg twice a week, eight weeks
Method: The ob/ob mice were breeded in the SPF animal laboratory of the Laboratory Animal Center of Fudan University at a room temperature of 21° C.-23° C. with a 12-hour light/dark cycle. When the mice were grown to 4-week old, they were randomly divided into a control group and an administration group, with 4 mice in each group. The administration group was injected intraperitoneally with artemether. Artemether for intraperitoneal injection was stored at 4° C. in coconut oil at a storage concentration of 6 mg/ml (20 mMol/L), and protected from light. Ob/ob mice in administration group were injected with artemether at a dose of 20 mg/kg weight. Administration was twice a week for eight weeks, and the weight of the mice was recorded weekly.

[2] = tested on: high fat-fed mice; test: Subcutaneous artemether, adipose tissue in high fat-fed mice; type: in vivo, Male C57BL/6J mice; settings: high-fat diet, subcutaneous injection, eight weeks
Method: The mice were breeded in the SPF animal laboratory of the Laboratory Animal Center of Fudan University at a room temperature of 21° C.-23° C. with a 12-hour light/dark cycle. […] When the mice were grown to 8-week old, they were randomly divided into a control group and an administration group, with 8 mice in each group. While the mice were fed with a high-fat diet, artemether was injected subcutaneously. Artemether was diluted in PBS at a concentration of […], and injected into bilateral inguinal region, with 200 μl being injected into each side. Mice in control group were injected with the same volume of PBS. Administration was continued for eight weeks. The mice were sacrificed by cervical dislocation and were dissected, and inguinal fat (Inguinal, subcutaneous fat), epididymal fat (Gonadal, visceral fat) and brown fat in the interscapular region (BAT, classic brown fat) were removed, weighed and fixed. The histological analysis of adipose tissue was commissioned by Shanghai Saige Biotech Co., Ltd. The histological analysis process included the steps of fixing, paraffin embedding, sectioning and HE staining.

With `CO[C@H]1O[C@@H]2O[C@@]3(C)CC[C@H]4[C@H](C)CC[C@@H]([C@H]1C)[C@@]24OO3` [artemether] the “weight gain of ob/ob mice” value [1] was “significantly slower than that of mice in control group”, the “weight of ob/ob mice” value [1] was “tended to be lower than that of mice in control group, but was not statistically different” and the “adipocyte size (sectioning and HE staining)” value [2] was “significantly smaller than that of mice in control group”. For the same compound, the “volume of adipose tissue (inguinal fat, epididymal fat and brown fat)” value [2] was “significantly smaller than that of mice in control group” and the “weight of adipose tissue (inguinal fat, epididymal fat and brown fat)” value [2] was “significantly smaller than that of mice in control group”.

Source: patent US20190133997A1, “ARTEMISININ ANALOG, AND USE, METHOD, AND COMPOSITION FOR PROMOTING LIPID CATABOLISM AND IMPROVING SUGAR METABOLISM” (FUDAN UNIVERSITY, priority 2016, published 2019)
